The source of these data is patent US6770650B2, “Cyclic amine derivatives-CCR-3 receptor antagonists” (Syntex (U.S.A.) LLC, priority 1997, dated 2004).

pIC50: −log10 of the molar value. Counter-ions that a name gives are not always drawn.

The first data set addresses T1, CCR-3 receptor (Homo sapiens, UniProt P51677).
T1 construct: expressed in transfected cells; host or cells: L1.2 cells (murine pre-B lymphoma line)
T1 sequence (P51677 1-355): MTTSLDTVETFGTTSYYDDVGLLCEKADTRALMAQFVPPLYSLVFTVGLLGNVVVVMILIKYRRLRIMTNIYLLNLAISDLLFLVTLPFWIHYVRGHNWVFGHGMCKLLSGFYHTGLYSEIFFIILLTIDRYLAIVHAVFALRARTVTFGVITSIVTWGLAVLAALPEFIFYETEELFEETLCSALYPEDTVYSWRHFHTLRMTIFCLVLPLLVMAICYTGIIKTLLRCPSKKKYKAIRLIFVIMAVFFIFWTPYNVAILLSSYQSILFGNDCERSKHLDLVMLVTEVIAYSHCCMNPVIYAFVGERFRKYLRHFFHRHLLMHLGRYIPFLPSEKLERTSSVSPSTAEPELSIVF
The data set can be described thus: CCR-3 Receptor Binding Assay, inhibition of 125I eotaxin binding to CCR-3 L1.2 transfectant cells. The note with it: concentration required to reduce 125I-eotaxin binding to the CCR-3 L1.2 transfected cells by 50%. How it is done:
The CCR-3 antagonistic activity of the compounds of the invention was determined by their ability to inhibit the binding of ^125I eotaxin to CCR-3 L1.2 transfectant cells ((see Ponath, P. D. et al., J. Exp. Med., Vol. 183, 2437-2448, (1996)).
The assay was performed in Costar 96-well polypropylene round bottom plates. Test compounds were dissolved in DMSO and then diluted with binding buffer (50 mM HEPES, 1 mM CaCl2, 5 mM MgCl2, 0.5% bovine serum albumin (BSA), 0.02% sodium azide, pH 7.24) such that the final DMSO concentration was 2%. 25 μl of the test solution or only buffer with DMSO (control samples) was added to each well, followed by the addition of 25 μl of ^125I-eotaxin ([…]) (NEX314, New England Nuclear, Boston, Mass.) and 1.5×10^5 of the CCR-3 L1.2 transfected cells in 25 μl binding buffer. The final reaction volume was 75 μl.
After incubating the reaction mixture for 1 h at room temperature, the reaction was terminated by filtering the reaction mixture through polyethylenimine treated Packard Unifilter GF/C filter plate (Packard, Chicago, Ill.). The filters were washed four times with ice cold wash buffer containing 10 mm HEPES and 0.5M sodium chloride (pH 7.2) and dried at 65° C. for approximately 10 min. 25 μl/well of Microscint-20™ scintillation fluid (Packard) was added and the radioactivity retained on the filters was determined by using the Packard TopCount™.
The IC50 value (concentration of test compound required to reduce ^125I-eotaxin binding to the CCR-3 L1.2 transfected cells by 50%) for some of the compounds of the invention was: […]
“1-{1(RS)-[4-(4-Chlorobenzyl)piperazin-1-yl]-2-methylpropyl}-3-(3-methylphenyl)-2-thiourea [compound 107]” had a pIC50 of 5.94.

As to `CC(C)C(CN1CCN(Cc2ccc(Cl)c(Cl)c2)CC1)NC(=O)c1ccccn1.Cl.Cl` (racemic) [compound 7, N-{1(RS)-[4-(3,4-Dichlorobenzyl)piperazin-1-ylmethyl]-2-methylpropyl}picolinamide dihydrochloride salt], the pIC50 is 6.38.

As to `CC(C)C(CN1CCN(Cc2ccc(Cl)c(Cl)c2)CC1)NC(=O)Cc1cccs1` (racemic) [compound 25, N-{1(RS)-[4-(3,4-Dichlorobenzyl)piperazin-1-ylmethyl]-2-methylpropyl}-2-(thiophene-2-yl)acetamide], the negative-log IC50 (pIC50) was 5.84.

The compound `CC(C)C(CN1CCN(Cc2ccc(Cl)cc2)CC1)NS(=O)(=O)c1ccc(Cl)cc1` (racemic) [compound 118] showed a pIC50 of 5.82. This pIC50 and that of the compound before are within 0.2 log units of each other.

As for `CC(C)C(CN1CCN(Cc2ccc(Cl)c(Cl)c2)CC1)NS(=O)(=O)c1ccc(F)cc1` (stereo in doubt) [compound 117, N-{1(R)-[4-(3,4-Dichlorobenzyl)piperazin-1-ylmethyl]-2-methylpropyl}-4-flourobenzenesulfonamide], the negative logarithm of the IC50 (pIC50) is 5.88.

Take `Cc1ccc(C(=O)N[C@H](CN2CCN(Cc3ccc(Cl)c(Cl)c3)CC2)C(C)C)cc1` [compound 8, N-{1(S)-[4-(3,4-Dichlorobenzyl)piperazin-1-ylmethyl]-2-methylpropyl}-4-methylbenzamide dihydrochloride salt]: the pIC50 is 6.62.

Regarding `CC(C)[C@@H](CN1CCN(Cc2ccc(Cl)c(Cl)c2)CC1)NC(=O)c1ccc2ccccc2c1` [compound 19, N-{1(S)-[4-(3,4-Dichlorobenzyl)piperazin-1-ylmethyl]-2-methylpropyl}-2-naphthaleneamide], the negative-log IC50 (pIC50) is 6.02.

`CC(C)C(CN1CCN(Cc2ccc(Cl)c(Cl)c2)CC1)NC(=O)c1ccncc1` (stereo not shown) [compound 20]: the pIC50 is 6.02.

Turning to `CCCC(CN1CCN(Cc2ccc(Cl)c(Cl)c2)CC1)NC(=O)c1ccc(C)cc1` (stereo not shown) [compound 23], the pIC50 was 5.88.

The compound `CC(C)C(CN1CCN(Cc2ccc(Cl)c(Cl)c2)CC1)NC(=O)c1ccc2ccccc2n1` (stereo not shown) [compound 24] showed a pIC50 of 5.86. The pIC50 values of the last two compounds are within 0.2 log units of each other.

In turn, `CC(C)(C)[C@@H](CN1CCC(Cc2ccc(Cl)c(Cl)c2)CC1)NC(=O)c1ccc(Cl)cc1` [compound 61] had a pIC50 of 5.75.

Turning to `Cc1ccc(C(=O)N2CCC[C@@H]2CN2CCN(Cc3ccc(Cl)c(Cl)c3)CC2)cc1` [compound 78, {1-(4-Methylbenzoyl)-2(R)-[4-(3,4-dichlorobenzyl)piperazin-1-ylmethyl]}pyrrolidine Dihydrochloride Salt], the pIC50 is 5.30. Compared with the last compound, the pIC50 is 0.45 log units lower.

In the case of `CCOc1ccccc1NC(=O)NC(CN1CCN(Cc2ccc(Cl)c(Cl)c2)CC1)C(C)C` (stereo not shown) [compound 86], the negative-log IC50 (pIC50) is 5.94.

`CC(C)C(CN1CCN(Cc2ccc(Cl)c(Cl)c2)CC1)NC(=O)Nc1cccc(Br)c1` (stereo not shown) [compound 88] gave a pIC50 of 5.83.

As for `CC(C)C(CN1CCN(Cc2ccc(Cl)cc2)CC1)NC(=O)Nc1ccccc1` (stereo not shown) [compound 89], the pIC50 is 5.77. This pIC50 and that of the compound before are within 0.2 log units of each other.

With `CC(=O)c1cccc(NC(=O)NC(CN2CCN(Cc3ccc(Cl)c(Cl)c3)CC2)C(C)C)c1` (stereo not shown) [compound 91], the pIC50 is 5.72. This pIC50 and that of the compound before are within 0.2 log units of each other.

With `COc1cccc(NC(=O)N[C@H](CN2CCC(Cc3ccc(Cl)c(Cl)c3)CC2)C(C)(C)C)c1` [compound 99], the pIC50 was 5.63.

`Cc1ccc(NC(=O)N[C@H](CN2CCC(Cc3ccc(Cl)c(Cl)c3)CC2)C(C)(C)C)cc1` [compound 100] showed a negative logarithm of the IC50 (pIC50) of 5.61.

On to `CC(C)C(CN1CCN(Cc2ccc(Cl)cc2)CC1)NC(=S)Nc1cccc2ccccc12` (stereo not shown) [compound 109], for which the pIC50 was 5.55.

In turn, `COc1ccccc1NC(=S)NC(CN1CCN(Cc2ccc(Cl)c(Cl)c2)CC1)C(C)C` (stereo not shown) [compound 110] showed a negative logarithm of the IC50 (pIC50) of 5.52. This pIC50 and that of the compound before are within 0.2 log units of each other.

`CC(C)C(CN1CCN(Cc2ccc(Cl)cc2)CC1)NS(=O)(=O)c1ccc(C(F)(F)F)cc1` (stereo not shown) [compound 121]: the pIC50 is 5.45.

Tested on in the next data set: not given
Assay: not given
Details: not given
As to `Cc1ccc(C(=O)N[C@H](CN2CCN(Cc3ccc(Cl)c(Cl)c3)CC2)C(C)(C)C)cc1.Cl.Cl`, the melting point fell in the range of 238 to 242 °C.

For `COc1ccc(C(=O)N[C@H](CN2CCN(Cc3ccc(Cl)c(Cl)c3)CC2)C(C)C)cc1.Cl.Cl`, the melting point was 222.5 to 223 °C.

The compound `Cc1ccc(C(=O)N[C@H](CN2CCN(Cc3ccc(Cl)c(Cl)c3)CC2)C(C)C)cc1` (as salt: HCl) [compound 8, N-{1(S)-[4-(3,4-Dichlorobenzyl)piperazin-1-ylmethyl]-2-methylpropyl}-4-methylbenzamide dihydrochloride salt] showed a melting point of 229 to 229.6 °C.

Compound `CC(C)C(CN1CCN(Cc2ccc(Cl)c(Cl)c2)CC1)NC(=O)c1ccncc1` (stereo not shown) (as salt: HCl) [compound 20] returned a melting point of 150 to 153 °C.

As for `CCCC(CN1CCN(Cc2ccc(Cl)c(Cl)c2)CC1)NC(=O)c1ccc(C)cc1` (stereo not shown) (as salt: HCl) [compound 23], the melting point is 199.5 to 203.5 °C.

In turn, `Cc1ccc(C(=O)N[C@H](CN2CCC(Cc3ccc(Cl)c(Cl)c3)CC2)C(C)C)cc1` (as salt: HCl) [compound 57, N-{1-(S)-[4-(3,4-Dichlorobenzyl)piperidin-1-ylmethyl]-2-methylpropyl}-4-methylbenzamide] returned a melting point of 87 to 90 °C.

Compound `Cc1ccc(C(=O)N[C@H](CN2CCC(Cc3ccc(Cl)c(Cl)c3)CC2)C(C)C)s1` (as salt: HCl) [compound 71, N-{1-(R)-[4-(Dichlorobenzyl)piperidin-1-ylmethyl]-2-methylpropyl}-5-methylthiophene-2-carboxamide Hydrochloride Salt] returned a melting point of 45 to 47.5 °C.

`Cc1ccc(C(=O)N2CCC[C@@H]2CN2CCN(Cc3ccc(Cl)c(Cl)c3)CC2)cc1` (as salt: HCl) [compound 78, {1-(4-Methylbenzoyl)-2(R)-[4-(3,4-dichlorobenzyl)piperazin-1-ylmethyl]}pyrrolidine Dihydrochloride Salt] showed a melting point of 249.6 to 250.1 °C.

`COc1cccc(NC(=O)N[C@H](CN2CCN(Cc3ccc(Cl)c(Cl)c3)CC2)C(C)C)c1` (as salt: HCl) [compound 98, 1-{1(S)-[4-(3,4-Dichlorobenzyl)piperazin-1-ylmethyl]-2-methylpropyl}-3-(3-methoxyphenyl)urea] registered a melting point of 97.5 to 99.5 °C.

`Cc1ccc(NC(=O)N[C@H](CN2CCC(Cc3ccc(Cl)c(Cl)c3)CC2)C(C)(C)C)cc1` (as salt: HCl) [compound 100] displayed a melting point of 109.5 to 111 °C.

In the case of `Cc1ccc(C(=O)NC(CC2CCN(Cc3ccc(Cl)c(Cl)c3)CC2)C(C)C)cc1` (racemic) (as salt: hydrochloride) [compound 133], the melting point fell in the range of 233.9 to 235.5 °C.

Compound `CC(C)C(CN1CCN(Cc2ccc(Cl)c(Cl)c2)CC1)NC(=O)c1ccccn1.Cl.Cl` (racemic) [compound 7, N-{1(RS)-[4-(3,4-Dichlorobenzyl)piperazin-1-ylmethyl]-2-methylpropyl}picolinamide dihydrochloride salt] displayed a melting point of 226.2 to 229.9 °C.

In turn, `COc1cccc(NC(=O)NC(C(C)C)C2CCN(Cc3ccc(Cl)c(Cl)c3)CC2)c1` (racemic) [compound 132, 1-{1(RS)-[1-(3,4-Dichlorobenzyl)piperidin-4-yl]-2-methylpropyl}-3-(3-methoxyphenyl)urea] registered a melting point of 161.4 to 161.8 °C.

On to `O=C(N[C@@H](CN1CCN(Cc2ccc(Cl)c(Cl)c2)CC1)C1CCCCC1)c1ccc(Cl)cc1` [compound 35, N-{1(R)-cyclohexyl-2-[4-(3,4-dichlorobenzyl)piperazin-1-yl]ethyl}-4-chloro-benzamide], for which the melting point lay within 149 to 155 °C.

Consider `CC(C)(C)[C@@H](CN1CCC(Cc2ccc(Cl)c(Cl)c2)CC1)NC(=O)c1ccc(Cl)cc1` [compound 61], for which the melting point fell in the range of 63 to 68 °C.

The compound `COc1cccc(NC(=O)N[C@H](CN2CCC(Cc3ccc(Cl)c(Cl)c3)CC2)C(C)(C)C)c1` [compound 99] registered a melting point of 75.1 to 80.3 °C.

What is called pIC50 is the IC50 on a negative log10 scale, so that one unit is a factor of ten. High values mean a small IC50, low ones a large IC50. Broadly, the melting point is the temperature of the solid-liquid transition.
